Test results: ChEMBL document CHEMBL1201862, “PubChem BioAssay data set” (2004)
The source made the active and inactive calls.

Assays:
HEK293 [1] = assay: Cytotoxicity assay in HEK293 cells. [Related pubchem assays (depositor defined):AID1266, AID1269, AID1270, AID1271, AID1280, AID1281, AID1282, AID1283, AID1287, AID1289, AID1290, AID1291, AID1292, AID1293, AID1294, AID1295, AID1299, AID1302, AID1364, AID1365, AID1366, AID1367, AID1369, AID1370, AID1371, AID1372, AID1373, AID1374, AID1375, AID1384 …; assay type: functional, cell-based; conditions: Homo sapiens
[2] = target: Luciferin 4-monooxygenase (Photinus pyralis, UniProt P08659); assay: In vitro luciferase assay using purified luciferase. [Related pubchem assays: 1299, 1270, 1295, 1375, 1287, 1281, 1293, 1291, 1289, 1280, 465, 1364, 1282, 1372, 1365, 1370, 1367, 1366, 1266, 1373, 1292, 1290, 1302, 1371, 1283, 1271, 1294, 1374, 1368, 1369 ]
Sequence of Luciferin 4-monooxygenase (P08659 whole entry): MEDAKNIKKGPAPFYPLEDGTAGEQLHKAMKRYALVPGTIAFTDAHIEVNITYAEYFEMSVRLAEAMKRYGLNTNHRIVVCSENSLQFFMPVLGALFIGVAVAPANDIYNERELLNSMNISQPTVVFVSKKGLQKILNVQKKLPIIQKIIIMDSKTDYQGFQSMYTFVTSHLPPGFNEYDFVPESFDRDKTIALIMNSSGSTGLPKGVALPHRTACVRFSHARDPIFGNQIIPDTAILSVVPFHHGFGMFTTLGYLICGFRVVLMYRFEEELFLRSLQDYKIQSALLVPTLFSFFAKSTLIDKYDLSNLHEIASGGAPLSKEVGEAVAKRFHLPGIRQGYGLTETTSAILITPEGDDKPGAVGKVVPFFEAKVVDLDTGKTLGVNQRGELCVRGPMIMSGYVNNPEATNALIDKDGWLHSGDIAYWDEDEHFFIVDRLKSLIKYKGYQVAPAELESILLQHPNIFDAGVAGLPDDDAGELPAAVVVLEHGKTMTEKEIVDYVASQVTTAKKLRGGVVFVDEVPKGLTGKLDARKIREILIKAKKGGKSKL

[3] = target: Voltage-dependent T-type calcium channel subunit alpha-1H (Homo sapiens, UniProt O95180); assay type: functional;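 note: channel activity triggered by adding a high calcium stimulation buffer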
Sequence of Voltage-dependent T-type calcium channel subunit alpha-1H (O95180 whole entry): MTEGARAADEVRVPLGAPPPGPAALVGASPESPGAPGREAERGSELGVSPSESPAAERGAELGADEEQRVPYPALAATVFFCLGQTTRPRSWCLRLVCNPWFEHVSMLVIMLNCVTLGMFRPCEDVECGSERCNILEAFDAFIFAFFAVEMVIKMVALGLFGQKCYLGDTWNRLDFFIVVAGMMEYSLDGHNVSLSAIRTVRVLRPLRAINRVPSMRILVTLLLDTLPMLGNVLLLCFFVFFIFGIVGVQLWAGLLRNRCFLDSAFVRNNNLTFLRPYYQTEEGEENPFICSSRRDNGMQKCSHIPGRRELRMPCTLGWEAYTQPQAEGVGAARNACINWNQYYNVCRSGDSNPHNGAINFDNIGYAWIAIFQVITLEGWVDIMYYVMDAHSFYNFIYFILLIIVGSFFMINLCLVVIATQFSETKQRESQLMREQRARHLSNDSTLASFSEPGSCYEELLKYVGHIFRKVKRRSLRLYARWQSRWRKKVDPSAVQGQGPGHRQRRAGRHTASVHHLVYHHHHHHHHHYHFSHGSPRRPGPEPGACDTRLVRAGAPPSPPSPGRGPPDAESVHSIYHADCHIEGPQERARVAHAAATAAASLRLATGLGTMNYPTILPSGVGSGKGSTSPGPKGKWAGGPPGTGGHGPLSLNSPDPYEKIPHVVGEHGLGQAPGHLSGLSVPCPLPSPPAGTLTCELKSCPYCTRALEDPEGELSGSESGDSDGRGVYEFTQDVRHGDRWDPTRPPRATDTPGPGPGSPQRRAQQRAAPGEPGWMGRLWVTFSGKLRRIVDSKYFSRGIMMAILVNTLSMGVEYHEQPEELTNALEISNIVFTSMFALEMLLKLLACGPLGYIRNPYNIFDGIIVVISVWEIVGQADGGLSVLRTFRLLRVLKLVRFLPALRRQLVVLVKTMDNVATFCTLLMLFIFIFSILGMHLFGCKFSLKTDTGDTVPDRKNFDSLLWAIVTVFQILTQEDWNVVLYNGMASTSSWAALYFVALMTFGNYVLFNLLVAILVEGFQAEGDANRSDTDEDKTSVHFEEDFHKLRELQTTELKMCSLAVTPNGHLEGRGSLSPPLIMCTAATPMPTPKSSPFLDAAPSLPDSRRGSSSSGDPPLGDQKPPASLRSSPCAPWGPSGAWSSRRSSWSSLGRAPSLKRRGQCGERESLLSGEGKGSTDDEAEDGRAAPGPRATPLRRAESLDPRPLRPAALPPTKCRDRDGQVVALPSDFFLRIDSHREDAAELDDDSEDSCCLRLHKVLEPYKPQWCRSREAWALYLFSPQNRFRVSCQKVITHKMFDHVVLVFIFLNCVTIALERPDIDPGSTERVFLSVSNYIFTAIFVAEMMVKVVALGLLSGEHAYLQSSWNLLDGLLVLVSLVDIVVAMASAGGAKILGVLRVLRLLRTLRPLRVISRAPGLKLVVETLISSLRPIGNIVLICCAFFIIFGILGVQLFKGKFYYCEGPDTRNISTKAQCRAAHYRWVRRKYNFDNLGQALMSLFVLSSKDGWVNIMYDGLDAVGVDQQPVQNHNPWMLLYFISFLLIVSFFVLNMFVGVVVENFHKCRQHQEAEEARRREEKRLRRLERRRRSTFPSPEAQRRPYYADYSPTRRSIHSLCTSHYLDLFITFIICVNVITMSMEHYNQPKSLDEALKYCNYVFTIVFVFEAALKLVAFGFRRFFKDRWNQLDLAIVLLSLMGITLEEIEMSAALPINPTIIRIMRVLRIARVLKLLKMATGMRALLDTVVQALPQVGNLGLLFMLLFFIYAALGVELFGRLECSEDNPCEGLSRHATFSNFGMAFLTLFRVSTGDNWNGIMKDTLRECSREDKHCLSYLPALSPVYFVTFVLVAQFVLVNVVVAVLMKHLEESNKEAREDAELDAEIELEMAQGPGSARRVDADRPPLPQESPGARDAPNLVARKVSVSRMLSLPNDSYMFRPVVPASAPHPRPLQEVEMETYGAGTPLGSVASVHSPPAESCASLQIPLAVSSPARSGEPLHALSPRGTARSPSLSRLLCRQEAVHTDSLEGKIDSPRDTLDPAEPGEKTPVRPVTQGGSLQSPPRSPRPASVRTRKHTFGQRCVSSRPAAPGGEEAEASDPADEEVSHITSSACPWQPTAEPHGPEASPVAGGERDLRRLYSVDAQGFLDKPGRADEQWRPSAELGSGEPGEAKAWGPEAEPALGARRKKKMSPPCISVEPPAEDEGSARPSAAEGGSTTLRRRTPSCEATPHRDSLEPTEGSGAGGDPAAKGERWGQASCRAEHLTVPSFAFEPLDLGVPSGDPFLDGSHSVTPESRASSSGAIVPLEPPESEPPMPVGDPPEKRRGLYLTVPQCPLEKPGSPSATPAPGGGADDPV

HEK293 [4] = assay: PMA/Ionomycin induced NF-kB luciferase assay in 293- NF-kB-Luc stable cells. [Related pubchem assays: 1299, 1270, 1295, 1375, 1287, 1281, 1293, 1291, 1289, 1280, 465, 1364, 1282, 1372, 1365, 1370, 1367, 1366, 1269, 1373, 1292, 1290, 1302, 1371, 1283, 1271, 1294, 1374, 1368, 1369 ]; assay type: functional, cell-based; conditions: Homo sapiens
[5] = target: Photoreceptor-specific nuclear receptor (Homo sapiens, UniProt Q9Y5X4); assay type: functional;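 note: potency for compounds that break the NR2E3 corepressor complex and count as activators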
Sequence of Photoreceptor-specific nuclear receptor (Q9Y5X4 whole entry, the tested form may be a part): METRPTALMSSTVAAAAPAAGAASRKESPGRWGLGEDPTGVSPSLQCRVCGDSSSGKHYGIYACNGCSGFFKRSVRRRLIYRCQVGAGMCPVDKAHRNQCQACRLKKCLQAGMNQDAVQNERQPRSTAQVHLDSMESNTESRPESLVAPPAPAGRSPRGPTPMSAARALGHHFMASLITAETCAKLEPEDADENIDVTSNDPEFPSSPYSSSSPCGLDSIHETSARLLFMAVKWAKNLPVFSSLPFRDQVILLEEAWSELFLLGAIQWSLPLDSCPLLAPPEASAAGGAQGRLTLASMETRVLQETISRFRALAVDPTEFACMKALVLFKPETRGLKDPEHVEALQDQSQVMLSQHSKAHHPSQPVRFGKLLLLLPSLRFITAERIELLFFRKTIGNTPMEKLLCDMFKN

[6] = target: T1, Polyadenylate-binding protein 1 (Homo sapiens, UniProt P11940); assay: MLLE domain peptide-binding blockers, IC50 – biochemical, fluorescence polarization, FITC-PAM2 peptide, dose response (AID 602259); assay type: functional; conditions: read-out: IC50_Mean
T1 sequence (P11940 whole entry, the tested form may be a part): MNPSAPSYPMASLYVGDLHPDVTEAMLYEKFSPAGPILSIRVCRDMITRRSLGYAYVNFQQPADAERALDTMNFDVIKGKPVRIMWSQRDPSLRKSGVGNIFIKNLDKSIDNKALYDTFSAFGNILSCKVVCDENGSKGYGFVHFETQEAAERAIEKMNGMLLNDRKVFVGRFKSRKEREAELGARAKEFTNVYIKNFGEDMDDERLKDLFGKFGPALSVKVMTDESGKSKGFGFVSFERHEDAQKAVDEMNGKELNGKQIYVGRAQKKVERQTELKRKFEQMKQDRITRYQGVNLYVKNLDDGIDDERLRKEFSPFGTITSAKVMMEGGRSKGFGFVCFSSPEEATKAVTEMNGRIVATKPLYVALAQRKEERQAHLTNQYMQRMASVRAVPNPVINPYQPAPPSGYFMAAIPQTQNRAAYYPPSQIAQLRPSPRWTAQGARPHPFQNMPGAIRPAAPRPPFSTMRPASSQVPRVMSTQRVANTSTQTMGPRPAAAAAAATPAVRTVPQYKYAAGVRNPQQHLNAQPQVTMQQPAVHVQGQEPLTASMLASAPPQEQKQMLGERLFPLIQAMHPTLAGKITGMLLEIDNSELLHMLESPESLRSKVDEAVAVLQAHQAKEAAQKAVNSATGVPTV

[7] = target: Peroxisome proliferator-activated receptor gamma/Nuclear receptor corepressor 2 (Homo sapiens, UniProt P37231+Q9Y618); assay type: functional
[8] = target: T1, Polyadenylate-binding protein 1; assay: MLLE binding blockers, Cy5 peptide tracer – biochemical, fluorescence polarization, Cy5-PAM2 peptide, secondary, miRNA deadenylation inhibitor project, dose response (AID 602260); assay type: functional; conditions: read-out: IC50_Mean
[9] = target: T2, Endoribonuclease toxin MazF (Escherichia coli K-12, UniProt P0AE70); assay: activation of MazEF endoribonuclease cleavage – biochemical, fluorescence, single-stranded RNA substrate, uHTS hits, dose response (AID 588481); assay type: functional
T2 sequence (P0AE70 whole entry): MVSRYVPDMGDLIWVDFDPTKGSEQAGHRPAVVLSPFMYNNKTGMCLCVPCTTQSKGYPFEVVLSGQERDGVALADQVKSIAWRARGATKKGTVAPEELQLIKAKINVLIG

HeLa = assay: viability loss in HeLa cells – cell-based, 24 h, cherry-picked samples, cytotoxicity control, dose response (AID 504726); assay type: functional; conditions: Homo sapiens;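 note: potency for cytotoxicity as loss of luminescence signal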
Salmon testes DNA = assay: acridine orange-DNA binding displacement – biochemical, fluorescence polarization, cherry-picked samples, set 2, artefact control for KSHV LANA DNA-binding inhibitor project, dose response (AID 504727); parameters: species or system Salmonidae
ORF 73 = target: T3, ORF 73 (Human herpesvirus 8, UniProt O40947); assay: KSHV LANA DNA-binding disruption – biochemical, fluorescence polarization, cherry-picked samples, dose response (AID 504725); parameters: species or system Human gammaherpesvirus 8;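 note: fluorescence polarization of a labeled DNA duplex reporting LANA DNA binding; potency is for inhibitors that block LANA binding to the DNA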
T3 sequence (O40947 whole entry): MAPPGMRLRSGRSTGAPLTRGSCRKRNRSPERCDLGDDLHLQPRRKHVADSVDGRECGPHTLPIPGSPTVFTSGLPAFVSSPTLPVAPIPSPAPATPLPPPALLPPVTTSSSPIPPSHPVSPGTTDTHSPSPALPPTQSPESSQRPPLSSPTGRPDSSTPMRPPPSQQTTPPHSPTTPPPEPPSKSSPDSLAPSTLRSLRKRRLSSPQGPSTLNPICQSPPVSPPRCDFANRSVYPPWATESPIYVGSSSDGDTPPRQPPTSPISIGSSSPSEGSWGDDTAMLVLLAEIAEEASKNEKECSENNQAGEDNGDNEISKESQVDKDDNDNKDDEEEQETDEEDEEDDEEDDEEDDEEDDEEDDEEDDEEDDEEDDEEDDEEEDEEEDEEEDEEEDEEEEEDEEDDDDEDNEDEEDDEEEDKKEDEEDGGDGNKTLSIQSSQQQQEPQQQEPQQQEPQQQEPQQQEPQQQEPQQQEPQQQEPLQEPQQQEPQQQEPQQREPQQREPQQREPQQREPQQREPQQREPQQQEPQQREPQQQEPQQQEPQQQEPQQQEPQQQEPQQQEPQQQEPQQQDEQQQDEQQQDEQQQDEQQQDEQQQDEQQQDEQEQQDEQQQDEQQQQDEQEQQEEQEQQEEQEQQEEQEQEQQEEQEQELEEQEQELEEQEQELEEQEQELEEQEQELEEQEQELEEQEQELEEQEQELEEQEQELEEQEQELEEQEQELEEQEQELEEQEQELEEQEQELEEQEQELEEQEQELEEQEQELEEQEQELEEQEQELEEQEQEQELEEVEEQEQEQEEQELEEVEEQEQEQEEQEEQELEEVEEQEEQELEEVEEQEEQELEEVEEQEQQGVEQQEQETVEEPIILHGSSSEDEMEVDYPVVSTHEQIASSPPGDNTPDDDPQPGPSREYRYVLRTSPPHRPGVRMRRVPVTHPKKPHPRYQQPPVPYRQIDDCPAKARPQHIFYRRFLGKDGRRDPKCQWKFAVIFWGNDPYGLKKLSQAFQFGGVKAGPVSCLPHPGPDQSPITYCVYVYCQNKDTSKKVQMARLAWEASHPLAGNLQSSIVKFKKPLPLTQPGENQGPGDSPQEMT

[10] = target: T2, Endoribonuclease toxin MazF; assay: substrate-only fluorescence increase artefacts – biochemical, single-stranded RNase substrate, counter-screen for MazEF activator project, dose response (AID 588502); assay type: functional
[11] = target: Dual specificity protein phosphatase 3 (Homo sapiens, UniProt P51452); assay: inhibition constants for human DUSP3 – biochemical, colorimetric, SAR follow-up (AID 2004)
Sequence of Dual specificity protein phosphatase 3 (P51452 whole entry): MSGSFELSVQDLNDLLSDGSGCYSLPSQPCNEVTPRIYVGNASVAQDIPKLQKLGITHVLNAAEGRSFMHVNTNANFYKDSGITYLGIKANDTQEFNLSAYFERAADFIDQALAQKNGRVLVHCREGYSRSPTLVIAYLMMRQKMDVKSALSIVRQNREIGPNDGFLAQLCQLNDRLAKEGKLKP

X-box-binding protein 1 = X-box-binding protein 1 (Homo sapiens, UniProt P17861); assay type: functional, Cricetulus griseus;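 note: confirmatory dose-response counter-screen serving a CHOP assay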
Sequence of X-box-binding protein 1 (P17861 whole entry): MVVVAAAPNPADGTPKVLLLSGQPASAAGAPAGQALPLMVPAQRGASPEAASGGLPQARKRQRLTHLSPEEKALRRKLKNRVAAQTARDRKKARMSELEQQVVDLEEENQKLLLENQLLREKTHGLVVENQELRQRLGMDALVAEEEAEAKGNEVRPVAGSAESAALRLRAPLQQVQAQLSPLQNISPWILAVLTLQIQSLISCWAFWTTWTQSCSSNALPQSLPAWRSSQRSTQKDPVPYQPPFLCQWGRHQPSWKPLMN

[12] = system: Streptococcus sp. 'group A'; assay: Streptococcus pyogenes SK(-)GAS viability under kanamycin – luminescence, BacTiterGlo, confirmation, counter-screen for streptokinase expression inhibitor project, dose response (AID 1900); assay type: functional, organism-based
[13] = viability loss of HPDE-C7K cells – cell-based, fluorescence, HTS, primary screen (AID 431); assay type: functional; conditions: Homo sapiens
Streptococcus = assay: GAS UMAA2166 growth inhibition – luminescence, BacTiterGlo, counter-screen for streptokinase expression inhibitor project, dose response (AID 1915); assay type: functional, organism-based;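 note: potency for reduction of bacterial viability or growth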
[14] = HPDE-C7 pancreatic duct cell viability loss – fluorescence, HTS (AID 430); assay type: functional, cell-based; conditions: Homo sapiens

SMILES: Cc1csc(NC(=O)c2sc3nc(-c4cccs4)ccc3c2N)n1
- EC50 (HEK293 [1]): > 8 µM (inactive)
- EC50 [2]: > 8 µM (not active)
- EC50 [3]: 6.54 µM (active)
- EC50 (HEK293 [4]): 15.8 µM (not active)

SMILES: COc1cccc(NC(=S)Nc2cc(C)cc(C)n2)c1
- IC50 [5]: 2.04 µM (active)
- IC50 [6]: > 66 µM (inactive)
- IC50 [7]: 1.61 µM (active)
- IC50 [8]: > 66 µM (inactive)

SMILES: COc1ccc(-c2cc(C(F)(F)F)c3c(N)c(C(=O)NCCSC)sc3n2)cc1
- EC50 [9]: > 99 µM (inactive)
- AC50 (HeLa): 45.9 µM (active)
- AC50 (Salmon testes DNA): 58.9 µM (active)
- AC50 (ORF 73): 34.5 µM (active)
- EC50 [10]: 61.6 µM (inactive)

SMILES: CCOC(=O)c1sc(N/N=C/c2cccc(O)c2)nc1C
- Ki [11]: 120 µM (inactive)

SMILES: O=C1c2n[nH]c(-c3ccccc3O)c2C(c2cccc(Cl)c2)N1Cc1ccco1 (centres undefined)
- Absolute IC50 (XBP1) (X-box-binding protein 1): 10 µM
- EC50 [12]: 6.78 µM (active)
- EC50 [13]: 9.83 µM (active)
- EC50 (Streptococcus): > 150 µM (inconclusive)
- EC50 [14]: 7.07 µM (active)
